Literature values as cited in patent US5330766A, “Sustained release pharmaceutical composition” (priority 1989, dated 1994).
Where a name gives a salt, the structure may show the parent alone. Read-outs that look alike come from different tables or passages of the source.

What was measured:
[1] = not given; remark: listed apart in the source

O=C(O)c1ccccc1O [Choline salicylate]
SOLUBILITY (AQUEOUS), in words: very soluble

CN1CCC(CN2c3ccccc3Sc3ccccc32)C1 (stereo not shown) [Methdilazine HCl]
pKA ([1]; first or only value given): 7.5

CCC1(CC)C(=O)NCC(C)C1=O (stereo not shown) [Methyprylon]
pKA ([1]; first or only value given): 12

CN(C)C1C(=O)C(C(N)=O)=C(O)C2(O)C(=O)C3=C(O)c4c(O)cccc4C(C)(O)C3C(O)C12 (stereo not shown) [Oxytetracycline HCl]
pKA [1]: 9.1
pKA ([1]; first or only value given): 3.3
pKA ([1]; second value): 7.3

CC(N)C(O)c1ccccc1 (stereo not shown) [Phenylpropanolamine hydrochloride]
pKA ([1]; first or only value given): 9

C[n+]1ccccc1/C=N/O [Pralidoxime chloride]
pKA ([1]; first or only value given): 8

CCCCCCCCCCCCCCCC(=O)OC1C(SC)OC(C(NC(=O)C2CC(CCC)CN2C)C(C)Cl)C(O)C1O (stereo not shown) [Clindamycin Palmitate HCl]
SOLUBILITY (AQUEOUS), in words: freely soluble

NCCCCCC(=O)O [Aminocaproic acid]
pKA ([1]; first or only value given): 4.43
pKA ([1]; second value): 10.73

CN1CCC(=C2c3ccccc3CCc3cccnc32)CC1 [Azatadine maleate]
SOLUBILITY (AQUEOUS), in words: very soluble
pKA ([1]; first or only value given): 9.3

CCC(C)C1(CC)C(=O)NC(=O)NC1=O (stereo not shown) [Butabarbital sodium]
SOLUBILITY (AQUEOUS), in words: freely soluble
pKA ([1]; first or only value given): 7.9

CCN(CC)CC#CCOC(=O)C(O)(c1ccccc1)C1CCCCC1 (stereo not shown) [Oxybutynin hydrochloride]
pKA ([1]; first or only value given): 6.96

O=C1NC(=O)C(c2ccccc2)(c2ccccc2)N1 [Phenytoin sodium]
SOLUBILITY (AQUEOUS), in words: soluble

CC(C)(C)NC[C@H](O)COc1nsnc1N1CCOCC1 [Timolol maleate]
SOLUBILITY (AQUEOUS), in words: freely soluble
pKA ([1]; first or only value given): 9

CCOC(=O)C1(c2ccccc2)CCN(C)CC1 [Pethidine hydrochloride]
SOLUBILITY (AQUEOUS), in words: very soluble

C=CCC1(C(C)CCC)C(=O)NC(=O)NC1=O (stereo not shown) [Secobarbital sodium]
pKA ([1]; first or only value given): 7.5

COC(=O)C(c1ccccc1)C1CCCCN1 (stereo not shown) [Methylphenidate hydrochloride]
SOLUBILITY (AQUEOUS), in words: freely soluble
pKA ([1]; first or only value given): 8.8

COc1cc2c(c(OC)c1OC)-c1ccc(OC)c(=O)cc1[C@@H](NC(C)=O)CC2 [Colchicine]
pKA ([1]; first or only value given): 1.7
pKA ([1]; second value): 12.4

CN(C)CCN(Cc1ccccc1)c1ccccn1 [Tripelennamine citrate]
pKA ([1]; first or only value given): 3.9
pKA ([1]; second value): 9.0

COc1ccc(Cc2nccc3cc(OC)c(OC)cc23)cc1OC [Papaverine hydrochloride]
pKA ([1]; first or only value given): 6.4

CCCC(CCC)C(=O)O[C@H]1C[C@H]2CC[C@@H](C1)[N+]2(C)C [Anisotropine methylbromide]
SOLUBILITY (AQUEOUS), in words: soluble

CN(C)CCOC(c1ccc(Cl)cc1)c1ccccn1 (stereo not shown) [Carbinoxamine maleate]
pKA ([1]; first or only value given): 8.1

CC(COc1ccccc1)N(CCCl)Cc1ccccc1 (stereo not shown) [Phenoxybenzamine hydrochloride]
pKA ([1]; first or only value given): 4.4

CCC1(C)CC(=O)NC1=O (stereo not shown) [Ethosuximide]
pKA ([1]; first or only value given): 9.0

COc1cc(C(=O)NCc2ccc(OCCN(C)C)cc2)cc(OC)c1OC [Trimethobenzamide hydrochloride]
pKA ([1]; first or only value given): 8.3

CCNC(C)Cc1cccc(C(F)(F)F)c1 (stereo not shown) [Fenfluramine hydrochloride]
pKA ([1]; first or only value given): 9.1

CO[C@@H]1[C@@H](OC(N)=O)[C@@H](O)[C@H](Oc2ccc3c(O)c(NC(=O)c4ccc(O)c(CC=C(C)C)c4)c(=O)oc3c2C)OC1(C)C [Novobiocin Sodium]
pKA ([1]; second value): 9.1

Nc1nc2c(c(=O)[nH]1)N(C=O)C(CNc1ccc(C(=O)N[C@@H](CCC(=O)O)C(=O)O)cc1)CN2 (stereo partly shown) [Leucovorin calcium]
SOLUBILITY (AQUEOUS), in words: very soluble
pKA [1]: 10.4
pKA ([1]; first or only value given): 3.1
pKA ([1]; second value): 4.8

C[C@H](CN1CCOCC1)C(C(=O)N1CCCC1)(c1ccccc1)c1ccccc1 [Dextromoramide tartrate]
pKA ([1]; first or only value given): 7.1

CN1CCCC1c1cccnc1 (stereo not shown) [Nicotine]
SOLUBILITY (AQUEOUS), in words: soluble

C[C@H]1[C@H](c2ccccc2)OCCN1C [Phendimetrazine tartrate]
SOLUBILITY (AQUEOUS), in words: freely soluble
pKA ([1]; first or only value given): 7.6

NNC(=O)c1ccncc1 [Isoniazid]
pKA [1]: 10.8
pKA ([1]; second value): 3.5

OCCOCCN1CCN(C(c2ccccc2)c2ccc(Cl)cc2)CC1 (stereo not shown) [Hydroxyzine hydrochloride]
pKA ([1]; first or only value given): 2.6
pKA ([1]; second value): 7.0

CC(C)N(CCC(C(N)=O)(c1ccccc1)c1ccccn1)C(C)C (stereo not shown) [Disopyramide phosphate]
pKA ([1]; first or only value given): 8.4

COc1ccc2c3c1O[C@H]1C(=O)CC[C@H]4[C@@H](C2)N(C)CC[C@]314.O=C(O)C(O)C(O)C(=O)O [Hydrocodone bitartrate]
pKA ([1]; first or only value given): 8.3

Cc1onc(-c2ccccc2Cl)c1C(=O)N[C@@H]1C(=O)N2[C@@H]1SC(C)(C)[C@@H]2C(=O)O [Cloxacillin sodium]
pKA ([1]; first or only value given): 2.7

CC(C)[N+](C)(CCOC(=O)C1c2ccccc2Oc2ccccc21)C(C)C [Propantheline bromide]
SOLUBILITY (AQUEOUS), in words: very soluble
pKA ([1]; first or only value given): 9.0

CC(C)(S)[C@@H](N)C(=O)O [Penicillamine HCl]
pKA ([1]; first or only value given, HCl): 8.0
pKA ([1]; second value): 10.8

CC(C)(S)[C@@H](N)C(=O)O [Penicillamine]
pKA ([1]; first or only value given): 1.8

CC1NCCOC1c1ccccc1 (stereo not shown) [Phenmetrazine hydrochloride]
pKA ([1]; first or only value given): 8.4

C[C@@H](Cc1ccccc1)N(C)Cc1ccccc1 [Benzphetamine hydrochloride]
pKA ([1]; first or only value given): 6.6

C[N+]12CCC(CC1)C(OC(=O)C(O)(c1ccccc1)c1ccccc1)C2 (stereo not shown) [Clidinium bromide]
SOLUBILITY (AQUEOUS), in words: soluble
